Results on two molecules are retold here after patent US20170002421A1, “METHODS AND ASSAYS FOR DETERMINING REDUCED BRCA1 PATHWAY FUNCTION IN A CANCER CELL” (THE GENERAL HOSPITAL CORPORATION, priority 2013, published 2017).

The subject of series [1] is breast cancer cell line panel. As to the kind of experiment: Pharmacologic inhibition assay (Crystal Violet, mean percent viability). The format is cell-based, human. Here is the method: All cell lines were obtained and maintained as previously described^15. Independent pharmacologic inhibition assays were conducted in triplicate for each cell line. Cells were seeded at 20,000 per well in a 24-well plate. After 24 hours, cells were treated in triplicate with indicated concentrations of: DMSO, temozolomide (SIGMA ALDRICH™, T2577), or AZD-2281 (SELLECK CHEMICALS™, S1060). After five days of incubation, cells were fixed in 4% formaldehyde and stained with 1% Crystal Violet (SIGMA ALDRICH™, C0775) for ten minutes at room temperature. Cells were then washed to remove unincorporated dye and plates were inverted to dry overnight. Incorporated dye was extracted with 10% acetic acid and OD595 measurements were obtained within a linear range. Treated cells were normalized to the vehicle-treated control to obtain mean percent viability.

The conditions of series [2]: clinical use, literature refs 34-38; cited from earlier work.

Structures are written as SMILES.

As for `O=C(c1cc(Cc2n[nH]c(=O)c3ccccc23)ccc1F)N1CCN(C(=O)C2CC2)CC1` [olaparib], the “inhibition (viability) in combination” value in series [1] (40 nM olaparib combined with 100 uM temozolomide, breast cancer cell line panel (FIG. 4A, lower panel)) is listed as “exerts inhibition”. Also, the “reduction in viability, single administration” value in series [1] (either drug alone, seven of the tested cell lines with Garnett et al. expression data (FIG. 4B, top and middle panel)) is on record as “did not demonstrate a significant reduction in viability”. Also, the “inhibitory effects (viability)” value in series [1] (olaparib alone, 40 nM, five days incubation, breast cancer cell line panel (FIG. 4A, middle panel)) was “does not demonstrate inhibitory effects alone”. Also, the “crossing the blood/brain barrier” value in series [2] was “evidence of crossing the blood/brain barrier”.
`Cn1nnc2c(C(N)=O)ncn2c1=O` [temozolomide]: in series [2], the “crossing the blood/brain barrier” value is on record as “can cross the blood/brain barrier”.
